Read-outs that look alike come from different tables or passages of the source.
How the values were obtained:
[1] = target: glucosylceramide synthase (GCS) (Homo sapiens (Human), UniProt Q16739); assay: Evaluation of inhibitory activities against GCS (A549 cell lysate, NBD C6-ceramide, HPLC); assay type: biochemical
Procedure, shortened: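 GCS activity in A549 cell lysate (50 mM HEPES, pH 7.3) with NBD C6-ceramide, reacted 90 min at 37 °C. Lipids were chloroform/methanol-extracted and separated by normal-phase HPLC with fluorescence detection (ex 470/em 530 nm). GlcCer fraction of peak area was normalized between DMSO and ibiglustat, and IC50 obtained by curve fitting.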

[2] = system: GM1 production in Jurkat cells; assay: cells; assay type: cell-based
[3] = % GCS activity, A549 cell lysate, 37° C. for 90 minutes, read-out: IC50

Chain of glucosylceramide synthase (GCS) (Q16739 whole entry): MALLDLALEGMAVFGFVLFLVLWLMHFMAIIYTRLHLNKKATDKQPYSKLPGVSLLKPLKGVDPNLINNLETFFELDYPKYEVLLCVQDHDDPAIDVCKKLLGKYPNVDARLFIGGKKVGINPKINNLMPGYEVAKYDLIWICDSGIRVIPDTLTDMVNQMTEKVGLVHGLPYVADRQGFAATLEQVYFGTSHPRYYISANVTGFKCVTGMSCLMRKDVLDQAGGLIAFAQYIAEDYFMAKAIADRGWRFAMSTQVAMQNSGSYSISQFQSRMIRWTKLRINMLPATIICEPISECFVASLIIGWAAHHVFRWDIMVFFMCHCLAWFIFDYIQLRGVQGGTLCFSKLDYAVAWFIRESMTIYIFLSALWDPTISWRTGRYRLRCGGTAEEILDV

SMILES | IC50 [1, 3] [nM] | IC50 ([2]; read-out: IC50) [nM] | IC50 [1] [nM] | IC50 ([2]; Homo sapiens, Jurkat, 72 h) [nM]
CCCOc1ccc(-c2ccc3c(c2)CCC(C)(C)[C@H]3NC(=O)O[C@@H]2CN3CCC2CC3)cc1 [Example 144, (S)-quinuclidin-3-yl((R)-2,2-dimethyl-6-(4-propoxyphenyl)-1,2,3,4-tetrahydronaphthalen-1-yl) carbamate] | 0.42 | 2.3 |  | 
CCCCOc1ccc(-c2ccc3c(c2)CCC(C)(C)[C@H]3NC(=O)O[C@@H]2CN3CCC2CC3)cc1 [Example 145, (S)-quinuclidin-3-yl((R)-6-(4-butoxyphenyl)-2,2-dimethyl-1,2,3,4-tetrahydronaphthalen-1-yl)carbamate] |  |  | 0.29 | 0.3
CC(C)COc1ccc(-c2ccc3c(c2)CCC(C)(C)[C@H]3NC(=O)O[C@@H]2CN3CCC2CC3)cc1 [Example 146, (S)-quinuclidin-3-yl((R)-6-(4-isobutoxyphenyl)-2,2-dimethyl-1,2,3,4-tetrahydronaphthalen-1-yl)carbamate] |  |  | 0.17 | 0.68
COc1c(C)cc(-c2ccc3c(c2)CCC(C)(C)[C@H]3NC(=O)O[C@@H]2CN3CCC2CC3)cc1C [Example 147, (S)-quinuclidin-3-yl((R)-6-(4-methoxy-3,5-dimethylphenyl)-2,2-dimethyl-1,2,3,4-tetrahydronaphthalen-1-yl) carbamate] | 1.18 | 9.4 |  | 
Cc1cc(-c2ccc3c(c2)CCC(C)(C)[C@H]3NC(=O)O[C@@H]2CN3CCC2CC3)cc(C)c1OC(C)C [Example 149, (S)-quinuclidin-3-yl((R)-6-(4-isopropoxy-3,5-dimethylphenyl)-2,2-dimethyl-1,2,3,4-tetrahydronaphthalen-1-yl) carbamate] | 1.77 | 14.6 |  | 
CCCCOc1c(C)cc(-c2ccc3c(c2)CCC(C)(C)[C@H]3NC(=O)O[C@@H]2CN3CCC2CC3)cc1C [Example 152, (S)-quinuclidin-3-yl((R)-6-(4-butoxy-3,5-dimethylphenyl)-2,2-dimethyl-1,2,3,4-tetrahydronaphthalen-1-yl)carbamate] |  |  | 1.65 | 8.3
COc1cccc(-c2ccc3c(c2)CCC(C)(C)[C@H]3NC(=O)O[C@@H]2CN3CCC2CC3)c1 [Example 153, (S)-quinuclidin-3-yl((R)-6-(3-methoxyphenyl)-2,2-dimethyl-1,2,3,4-tetrahydronaphthalen-1-yl)carbamate] |  |  | 0.32 | 2.1
CCOc1cccc(-c2ccc3c(c2)CCC(C)(C)[C@H]3NC(=O)O[C@@H]2CN3CCC2CC3)c1 [Example 154, (S)-quinuclidin-3-yl((R)-6-(3-ethoxyphenyl)-2,2-dimethyl-1,2,3,4-tetrahydronaphthalen-1-yl)carbamate] |  |  | 0.38 | 2.9
CCCCOc1cccc(-c2ccc3c(c2)CCC(C)(C)[C@H]3NC(=O)O[C@@H]2CN3CCC2CC3)c1 [Example 155, (S)-quinuclidin-3-yl((R)-6-(3-butoxyphenyl)-2,2-dimethyl-1,2,3,4-tetrahydronaphthalen-1-yl)carbamate] |  |  | 0.39 | 0.7
CC(C)Cc1cccc(-c2ccc3c(c2)CCC(C)(C)[C@H]3NC(=O)O[C@@H]2CN3CCC2CC3)c1 [Example 157, (S)-quinuclidin-3-yl((R)-6-(3-isobutylphenyl)-2,2-dimethyl-1,2,3,4-tetrahydronaphthalen-1-yl)carbamate] |  |  | 0.81 | 2.64
CCCOc1cccc(-c2ccc3c(c2)CCC(C)(C)[C@H]3NC(=O)O[C@@H]2CN3CCC2CC3)c1 [Example 159, (S)-quinuclidin-3-yl((R)-2,2-dimethyl-6-(3-propoxyphenyl)-1,2,3,4-tetrahydronaphthalen-1-yl)carbamate] |  |  | 4.28 | 1.7
CC(C)Cc1ccc(-c2ccc3c(c2)CCC(C)(C)[C@H]3NC(=O)O[C@@H]2CN3CCC2CC3)cc1 [Example 160, (S)-quinuclidin-3-yl((R)-6-(4-isobutylphenyl)-2,2-dimethyl-1,2,3,4-tetrahydronaphthalen-1-yl)carbamate] |  |  | 5.05 | 3
